This is an account of results in patent US10233182B2, “Substituted spirocyclic inhibitors of autotaxin” (X-Rx, Inc., priority 2014, dated 2019).

Bounds are passed on as bounds.

For this assay, the target named is Autotaxin (Homo sapiens (Human), UniProt Q13822). As to the kind of experiment: Autotaxin LPC Cascade Assay. It counts as biochemical. The note with it: Autotaxin 5 nM, LPC 100 μM, choline oxidase/HRP/Ampliflu Red fluorescence read-out, 2% DMSO, RT; read-out: IC50 ATX Activity. The protocol:
Autotaxin LPC Cascade Assay:
HA130 and Test Compounds:
Prepare a 1 mM stock of HA130 and a 3 mM stock of each compound in 100% DMSO. Perform a 1:3 serial dilution in DMSO (transfer 5 l of compound to 10 l of DMSO). Add 240 l of buffer to generate a top working concentration of 40 µM (HA130) and 120 µM (test compound) in 4% DMSO.
Ampliflu Red—Prepare a stock of 5 mM from 100 mM in 100% DMSO. Further dilute to a working concentration of 400 μM in buffer (8% DMSO).
Together with compound this yields a 2% DMSO final concentration.
Choline Oxidase/HRP—0.8 U/mL CO and 8 U/mL HRP.
Incubate for 10 mins at RT. Add 5 µl of LPC and incubate for 1 hr on the plate shaker. Prepare the CO/HRP and AR immediately prior to use. Add 2.5 l of CO/HRP and follow with 2.5 l AR. Note order of addition, CO/HRP mix before AR. Read fluorescence intensity (ex/em: 530/590 nm) kinetically for 30 min at RT on the Tecan M1000.
On to `CC(C)[C@@H](NC(=O)c1cc(C(F)(F)F)ccc1F)C(=O)N1CCC2(CC1)C(=O)N(C)C(=O)N2c1ccc(=O)[nH]c1` [Example 22, (R)-2-Fluoro-N-(3-methyl-1-(3-methyl-2,4-dioxo-1-(6-oxo-1,6-dihydropyridin-3-yl)-1,3,8-triazaspiro[4.5]decan-8-yl)-1-oxobutan-2-yl)-5-(trifluoromethyl)benzamide], for which the IC50 (in general, the concentration at which inhibition is half-maximal) was at least 1 µM.

Consider `CC(C)[C@@H](NC(=O)c1cc(C(F)(F)F)ccc1F)C(=O)N1CCC2(CC1)C(=O)N(C)C(=O)N2c1ccc(=O)n(C)c1` [Example 23, (R)-2-Fluoro-N-(3-methyl-1-(3-methyl-1-(1-methyl-6-oxo-1,6-dihydropyridin-3-yl)-2,4-dioxo-1,3,8-triazaspiro[4.5]decan-8-yl)-1-oxobutan-2-yl)-5-(trifluoromethyl)benzamide], for which the IC50 lay in the range of 0.5 to 1 µM.

Turning to `CN1C(=O)N(c2ccc(=O)n(C)c2)C2(CCN(C(=O)[C@H](NC(=O)c3cc(C(F)(F)F)ccc3F)C3CCCC3)CC2)C1=O` [Example 24, (R)—N-(1-Cyclopentyl-2-(3-methyl-1-(1-methyl-6-oxo-1,6-dihydropyridin-3-yl)-2,4-dioxo-1,3,8-triazaspiro[4.5]decan-8-yl)-2-oxoethyl)-2-fluoro-5-(trifluoromethyl)benzamide], the IC50 is below 0.5 µM.

For `COc1ccc(N2C(=O)N(C)C(=O)C23CCN(C(=O)[C@H](NC(=O)c2cc(C(F)(F)F)ccc2F)C(C)C)CC3)cn1` [Example 25, (R)-2-Fluoro-N-(1-(1-(6-methoxypyridin-3-yl)-3-methyl-2,4-dioxo-1,3,8-triazaspiro[4.5]decan-8-yl)-3-methyl-1-oxobutan-2-yl)-5-(trifluoromethyl)benzamide], the IC50 was below 0.5 µM.

Take `CC(C)[C@@H](NC(=O)c1cc(C(F)(F)F)ccc1F)C(=O)N1CCC2(CC1)C(=O)N(C)C(=O)N2c1ccc(OC(F)(F)F)cc1` [Example 26, (R)-2-Fluoro-N-(3-methyl-1-(3-methyl-2,4-dioxo-1-(4-(trifluoromethoxy)phenyl)-1,3,8-triazaspiro[4.5]decan-8-yl)-1-oxobutan-2-yl)-5-(trifluoromethyl)benzamide]: the concentration for half-maximal inhibition (IC50) is below 0.5 µM.

For `CC(C)[C@@H](NC(=O)c1cc(C(F)(F)F)ccc1F)C(=O)N1CCC2(CC1)C(=O)N(C)C(=O)N2c1ccc2occc2c1` [Example 27, (R)-2-Fluoro-N-(3-methyl-1-(3-methyl-2,4-dioxo-1-(5-benzofuran)-1,3,8-triazaspiro[4.5]decan-8-yl)-1-oxobutan-2-yl)-5-(trifluoromethyl)benzamide], the IC50 is below 0.5 µM.

On to `CC(C)[C@@H](NC(=O)c1cc(C(F)(F)F)ccc1F)C(=O)N1CCC2(CC1)C(=O)N(C)C(=O)N2c1ccc2[nH]c(=O)oc2c1` [Example 28, (R)-2-Fluoro-N-(3-methyl-1-(3-methyl-2,4-dioxo-1-(2-oxo-2,3-dihydrobenzo[d]oxazol-6-yl)-1,3,8-triazaspiro[4.5]decan-8-yl)-1-oxobutan-2-yl)-5-(trifluoromethyl)benzamide], for which the IC50 is below 0.5 µM.

`CC(C)[C@@H](NC(=O)c1cc(C(F)(F)F)ccc1F)C(=O)N1CCC2(CC1)C(=O)N(C)C(=O)N2c1ccc2oc(=O)[nH]c2c1` [Example 29, (R)-2-Fluoro-N-(3-methyl-1-(3-methyl-2,4-dioxo-1-(2-oxo-2,3-dihydrobenzo[d]oxazol-5-yl)-1,3,8-triazaspiro[4.5]decan-8-yl)-1-oxobutan-2-yl)-5-(trifluoromethyl)benzamide]: the 50% inhibitory concentration (IC50) was 0.5 to 1 µM.

With `CC(C)[C@@H](NC(=O)c1cc(C(F)(F)F)ccc1F)C(=O)N1CCC2(CC1)C(=O)N(C)C(=O)N2c1ccc2c(c1)OCC(=O)N2` [Example 30, (R)-2-Fluoro-N-(3-methyl-1-(3-methyl-2,4-dioxo-1-(3-oxo-3,4-dihydro-2H-benzo[b][1,4]oxazin-7-yl)-1,3,8-triazaspiro[4.5]decan-8-yl)-1-oxobutan-2-yl)-5-(trifluoromethyl)benzamide], the IC50 lay in the range of 0.5 to 1 µM.

In the case of `CCc1ccc(F)c(C(=O)N[C@@H](C(=O)N2CCC3(CC2)C(=O)N(C)C(=O)N3c2ccc3[nH]c(=O)oc3c2)C(C)C)c1` [Example 31, (R)-5-Ethyl-2-fluoro-N-(3-methyl-1-(3-methyl-2,4-dioxo-1-(2-oxo-2,3-dihydrobenzo[d]oxazol-6-yl)-1,3,8-triazaspiro[4.5]decan-8-yl)-1-oxobutan-2-yl)benzamide], the IC50 is below 0.5 µM.

For the compound `CC(C)[C@@H](NC(=O)c1cc(C(F)(F)F)ccc1F)C(=O)N1CCC2(CC1)C(=O)N(C)C(=O)N2c1ccc2[nH]nnc2c1` [Example 32, (R)—N-(1-(1-(1H-Benzo[d][1,2,3]triazol-5-yl)-3-methyl-2,4-dioxo-1,3,8-triazaspiro [4.5]decan-8-yl)-3-methyl-1-oxobutan-2-yl)-2-fluoro-5-(trifluoromethyl)benzamide], the IC50 is below 0.5 µM.

Take `CC(C)[C@@H](NC(=O)c1cccc(C(F)(F)F)c1)C(=O)N1CCC2(CC1)C(=O)N(C)C(=O)N2c1ccccc1` [Example 33, (R)—N-(3-Methyl-1-(3-methyl-2,4-dioxo-1-phenyl-1,3,8-triazaspiro[4.5]decan-8-yl)-1-oxobutan-2-yl)-3-(trifluoromethyl)benzamide]: the IC50 is 0.5 to 1 µM.

Turning to `CCc1cccc(C(=O)N[C@@H](C(=O)N2CCC3(CC2)C(=O)N(C)C(=O)N3c2ccccc2)C(C)C)c1F` [Example 34, (R)-3-Ethyl-2-fluoro-N-(3-methyl-1-(3-methyl-2,4-dioxo-1-phenyl-1,3,8-triazaspiro[4.5]decan-8-yl)-1-oxobutan-2-yl)benzamide], the IC50 is at least 1 µM.

As to `CC(C)[C@@H](NC(=O)c1ccc(Cl)c(Cl)c1)C(=O)N1CCC2(CC1)C(=O)N(C)C(=O)N2c1ccccc1` [Example 35, (R)-3,4-Dichloro-N-(3-methyl-1-(3-methyl-2,4-dioxo-1-phenyl-1,3,8-triazaspiro[4.5]decan-8-yl)-1-oxobutan-2-yl)benzamide], the IC50 was at least 1 µM.

Regarding `CC(C)[C@@H](NC(=O)c1cc(Cl)ccc1Cl)C(=O)N1CCC2(CC1)C(=O)N(C)C(=O)N2c1ccccc1` [Example 36, (R)-2,5-Dichloro-N-(3-methyl-1-(3-methyl-2,4-dioxo-1-phenyl-1,3,8-triazaspiro[4.5]decan-8-yl)-1-oxobutan-2-yl)benzamide], the IC50 was at least 1 µM.

Regarding `CCc1ccc(F)c(C(=O)N[C@@H](C(=O)N2CCC3(CC2)C(=O)N(C)C(=O)N3c2ccccc2)[C@H](C)OC)c1` [Example 37, 5-Ethyl-2-fluoro-N-((2R,3S)-3-methoxy-1-(3-methyl-2,4-dioxo-1-phenyl-1,3,8-triazaspiro[4.5]decan-8-yl)-1-oxobutan-2-yl)benzamide], the IC50 is below 0.5 µM.

For the compound `CCc1cc(F)cc(C(=O)N[C@@H](C(=O)N2CCC3(CC2)C(=O)N(C)C(=O)N3c2ccccc2)[C@H](C)OC)c1` [Example 38, 3-Ethyl-5-fluoro-N-((2R,3S)-3-methoxy-1-(3-methyl-2,4-dioxo-1-phenyl-1,3,8-triazaspiro[4.5]decan-8-yl)-1-oxobutan-2-yl)benzamide], the IC50 is at least 1 µM.

Consider `CCc1ccc(F)c(C(=O)N[C@@H](C(=O)N2CCC3(CC2)C(=O)N(C)C(=O)N3c2ccccc2)C(C)C)c1` [Example 39, (R)-5-Ethyl-2-fluoro-N-(3-methyl-1-(3-methyl-2,4-dioxo-1-phenyl-1,3,8-triazaspiro[4.5]decan-8-yl)-1-oxobutan-2-yl)benzamide], for which the IC50 was below 0.5 µM.

For `CCc1ccc(F)c(C(=O)N[C@@H](C(=O)N2CCC3(CC2)C(=O)N(C)C(=O)N3c2ccc(OC)cc2)[C@@H](C)OC)c1` [Example 40, 5-Ethyl-2-fluoro-N-((2R,3R)-3-methoxy-1-(1-(4-methoxyphenyl)-3-methyl-2,4-dioxo-1,3,8-triazaspiro[4.5]decan-8-yl)-1-oxobutan-2-yl)benzamide], the IC50 was below 0.5 µM.

In the case of `CC[C@@H](C)[C@@H](NC(=O)c1cc(C)cc(F)c1)C(=O)N1CCC2(CC1)C(=O)N(C)C(=O)N2c1ccc(OC)cc1` [Example 41, 3-Fluoro-N-((2R,3R)-1-(1-(4-methoxyphenyl)-3-methyl-2,4-dioxo-1,3,8-triazaspiro[4.5]decan-8-yl)-3-methyl-1-oxopentan-2-yl)-5-methylbenzamide], the IC50 was below 0.5 µM.

On to `CC(C)[C@@H](NC(=O)c1cc(C2CC2)ccc1F)C(=O)N1CCC2(CC1)C(=O)N(C)C(=O)N2c1ccccc1` [Example 42, (R)-5-Cyclopropyl-2-fluoro-N-(3-methyl-1-(3-methyl-2,4-dioxo-1-phenyl-1,3,8-triazaspiro[4.5]decan-8-yl)-1-oxobutan-2-yl)benzamide], for which the IC50 is below 0.5 µM.

Take `CC(C)[C@@H](NC(=O)c1cc(Cl)ccc1F)C(=O)N1CCC2(CC1)C(=O)N(C)C(=O)N2c1ccccc1` [Example 43, (R)-5-Chloro-2-fluoro-N-(3-methyl-1-(3-methyl-2,4-dioxo-1-phenyl-1,3,8-triazaspiro[4.5]decan-8-yl)-1-oxobutan-2-yl)benzamide]: the IC50 was below 0.5 µM.

For `CC(C)[C@@H](NC(=O)c1cc(C(F)(F)F)ccc1F)C(=O)N1CCC2(CC1)C(=O)N(C)C(=O)N2c1ccccc1` [Example 44, (R)-2-Fluoro-N-(3-methyl-1-(3-methyl-2,4-dioxo-1-phenyl-1,3,8-triazaspiro[4.5]decan-8-yl)-1-oxobutan-2-yl)-5-(trifluoromethyl)benzamide], the IC50 was below 0.5 µM.
